Here are results for two molecules from article PMC8395335, “Serotonergic–Muscarinic Interaction within the Prefrontal Cortex as a Novel Target to Reverse Schizophrenia-Related Cognitive Symptoms” (International Journal of Molecular Sciences, 2021).

One data set can be described thus: in vivo. Conditions: mouse. More on the design: species or system mice. On the procedure:
The experiment was performed using the methods described by Bridges et al. and in our previous studies.
The pharmacokinetic analysis was performed in the blood and prefrontal cortex. […] Plasma and FC samples were stored at −80 °C until analysis.
The drug was administered at a dose of 0.1 mg/kg; brain and tissue samples were collected 15, 30, 60, and 120 min after administration.
On the day of analysis, frozen whole mouse brain tissues were weighed and homogenized in 1:2 (w/v) volumes of ice-cold acetonitrile containing 0.1% FA and the internal standard mix. Samples were homogenized using a Metal Bead Lysing Matrix, vortexed for 1 min, shaken for 20 min at 4 °C on Thermomixer C, and centrifuged at 14,000× g rpm for 20 min at 4 °C. Finally, 50 µL of supernatant were diluted with 0.1% FA in water (1:1, v/v) and analyzed using HPLC/MS/MS.
The sample extraction of plasma (20 μL) was performed after spiking with the internal standard mix using the protein precipitation method and three volumes of ice-cold acetonitrile containing 0.1% formic acid. The extract was vortexed, incubated on ice for 20 min and centrifuged at 14,000× g rpm for 20 min at 4 °C. The supernatant was diluted with 0.1% FA in water (1:1, v/v) and analyzed by means of HPLC/MS/MS using a QTRAP 4500 (AB Sciex) mass spectrometer in positive ion mode in Multiple Reaction Monitoring (MRM screening) coupled with UHPLC (NEXERA XR, Shimadzu). Chromatographic separation was achieved on a Synergi 4 µm Fusion-RP 80 A 50 × 2 mm (Phenomenex) column at a flow rate of 0.2 mL/min. The gradient program was as follows: 20% B (0.3 min), 20–100% B (1.7 min), 100% B (3 min), 100–20% B (0.1 min), 20% B (2 min), solvent A (95:5:0.1% formic acid in water:methanol) and solvent B (methanol containing 0.1% formic acid). The column temperature was set to 40 °C. Analyst software was used to control the instrument and collect data. The ion transfer tube temperature was 300 °C. The spray voltage, collision energy, declastering potential, and gas parameters were optimized to achieve the maximal response using the test compounds. Selected reaction monitoring was carried out using the transition parameters. Calibration curves were constructed, and a linear response was obtained in the range of 0.25–500 ng/mL (VU357017, VU0152100, and F15599) and 1.25–2500 ng/mL (VU0238429) by spiking known amounts of each compound in blank brain homogenates and plasma. For VU0357017 and F15599 IS VU0152100 was used as internal standard. Sample concentration of internal standard was 100 ng/mL for IS VU0238429 and 50 ng/mL for IS VU0152100.

For a further data set, the system named is PCP-induced deficits. More on the design: method as in PMID 20488670. Conditions: cited from earlier work.
A further data set relates to rats. More on the design: method as in PMID 19154445. Conditions: cited from earlier work.
On the set-up of data set [1]: method as in PMID 31174329, PMID 19438238. The conditions noted are these: earlier studies; cited from earlier work.

Turning to `Cc1cnc(CNCC2(F)CCN(C(=O)c3ccc(F)c(Cl)c3)CC2)nc1` [F15599], in “in vivo” (Albino Swiss), the “Time after administration up to which drug was detected in the frontal cortex” value is on record as “up to 2 h”. In the data set “in vivo” (Albino Swiss, ip, 0.1 mg/kg), the Tmax was 15 min, the “Tmax PFC (FC)” value came to 15 min and the half-life was 120 min. Moreover, the Cmax in the data set “in vivo” (Albino Swiss, ip, 0.1 mg/kg, Cmax PFC (FC)) is 48 ng/mL. Besides, the Cmax in the data set “in vivo” (Albino Swiss, ip, 0.1 mg/kg, Cmax plasma) worked out at 27 ng/mL. In addition, the half-life in “in vivo” (ip, 0.1 mg/kg) was found to be 35 min. Further, the “Effect on PCP-induced deficits during the reversal phase of the learning task and in the hole-board test” value in the data set with PCP-induced deficits was “ameliorated”. The “Doses inducing some adverse effects related to serotonergic syndrome” value in the data set on rats is on record as “greater than 0.16 mg/kg”.

Consider `COc1ccc(CN2C(=O)C(=O)c3cc(OC(F)(F)F)ccc32)cc1` [VU0238429], for which the “Brain penetration (whole brain)” value in data set [1] is ≤ 8%.

What is called Tmax is the time at which the peak concentration occurs. Broadly, the half-life is how long it takes for the measured level to halve. For orientation: Cmax means the highest concentration seen after dosing.
